Like-named read-outs stand apart in the source and are kept apart here.
Columns and labels:
SERCA = biological target: T1, SERCA (Sus scrofa, UniProt P11607); test: Enzyme-coupled, NADH-linked SERCA ATPase assay in pig cardiac SR; type: biochemical; parameters: inhibition of ATPase activity: dose or concentration left out as unconfirmed
T1 construct: Cardiac sarcoplasmic reticulum (SR) vesicles were prepared from the ventricular tissue of swine hearts; from tissue; host or cells: ventricular tissue of swine hearts (cardiac SR vesicles)
T1 sequence (P11607 1-997 isoform P11607-2): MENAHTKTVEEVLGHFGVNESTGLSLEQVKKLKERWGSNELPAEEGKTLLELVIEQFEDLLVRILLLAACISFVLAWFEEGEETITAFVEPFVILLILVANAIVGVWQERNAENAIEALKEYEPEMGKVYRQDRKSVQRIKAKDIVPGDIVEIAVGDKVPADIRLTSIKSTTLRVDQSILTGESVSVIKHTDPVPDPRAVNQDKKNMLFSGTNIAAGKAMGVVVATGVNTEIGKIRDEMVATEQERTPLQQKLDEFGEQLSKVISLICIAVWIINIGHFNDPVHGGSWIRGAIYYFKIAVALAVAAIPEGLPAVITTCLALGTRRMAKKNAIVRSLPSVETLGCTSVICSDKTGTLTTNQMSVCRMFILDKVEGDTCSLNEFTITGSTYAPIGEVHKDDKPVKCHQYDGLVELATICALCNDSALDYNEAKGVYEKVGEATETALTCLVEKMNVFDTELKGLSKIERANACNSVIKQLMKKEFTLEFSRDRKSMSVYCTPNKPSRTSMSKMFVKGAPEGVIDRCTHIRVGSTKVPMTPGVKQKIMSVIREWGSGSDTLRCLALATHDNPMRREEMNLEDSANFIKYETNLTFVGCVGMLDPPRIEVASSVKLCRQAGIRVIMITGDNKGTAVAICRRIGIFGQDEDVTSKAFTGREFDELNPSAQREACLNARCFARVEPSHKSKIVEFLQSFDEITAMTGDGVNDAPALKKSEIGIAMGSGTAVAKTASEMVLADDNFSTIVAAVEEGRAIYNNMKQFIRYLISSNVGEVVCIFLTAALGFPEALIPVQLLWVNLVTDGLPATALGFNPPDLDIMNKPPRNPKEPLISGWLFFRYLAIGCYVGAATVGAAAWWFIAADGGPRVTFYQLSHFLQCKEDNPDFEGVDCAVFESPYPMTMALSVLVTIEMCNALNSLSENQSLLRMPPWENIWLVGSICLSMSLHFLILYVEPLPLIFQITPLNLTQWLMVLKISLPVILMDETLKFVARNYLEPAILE
Experimental: An enzyme-coupled, NADH-linked ATPase assay was used to measure SERCA ATPase activity (Stergiopoulos et al., BMC Health Serv Res 2012, 12, 345). in 96-well microplates. Each well contained 50 mM MOPS (pH 7.0), 100 mM KCl, 5 mM MgCl2, 1 mM EGTA, 0.2 mM NADH, 1 mM phosphoenol pyruvate, 10 IU/mL of pyruvate kinase, 10 IU/mL of lactate dehydrogenase, 3.5 μg/mL of the calcium ionophore A23187, and CaCl2 added to set free [Ca^2+] to the desired values. (Mueller et al., Biochemistry 2004, 43, 8754-8765). 2.5 μg of cardiac SR or 25 μg of HEK cell homogenate were used in each well to correct for the difference in SERCA content. The assay was started upon the addition of ATP at a final concentration of 5 mM and read in a SpectraMax Plus microplate spectrophotometer (Molecular Devices, Sunnyvale, Calif.), bring the total volume to 200 μL. Results were normalized to SERCA content determined from immunoblotting.
Effects of known activators and LOPAC hits on SERCA ATPase activity was evaluated in pig cardiac SR. Compounds were dissolved in DMSO, and adjusted to […] the concentrations used in the final assay wells. 4 μL prediluted compounds were added to each well to keep the final [DMSO] at 2% (v/v).

2-color SERCA2a (2CS) = biological target: T2, 2-color SERCA2a (2CS) (Canis lupus familiaris, UniProt O46674, INS508[…]); test: Live-cell 2-color SERCA (2CS) FRET assay in fluorescence lifetime plate reader; type: cell-based, canine; settings: for LOPAC library screen outcome (2CS GFP lifetime outside 3SD window): hit = lifetime change more than 3 SD from DMSO controls, repeated
T2 construct: expressed in transfected cells
Excerpt: Using recombinant DNA technology, the gene for TagRFP was fused to the N-terminus of canine SERCA2a. This fusion position is in the A-domain of the pump. EGFP was fused as an intrasequence tag before residue 509 in the N-domain. The structural model presented in FIG. 1A corresponds to the isoform SERCA1a, which is 84% homologous to SERCA2a. Hou et al. evaluated several intrasequence fusion positions chosen using x-ray crystal structures of SERCA1a to identify unstructured loops and predict large relative distance changes without affecting SERCA function. (Hou et al., PLoS ONE 2012, 7, e40369). The 509 site was chosen because the labeled construct had normal SERCA activity and its intramolecular FRET signal was sensitive to SERCA structural state, as shown below.
(§1) The 96-well plate format LOPAC library was reformatted into four 384-well polystyrene mother plates (Corning, Corning, N.Y.) using a Biomek FX liquid handler (Beckman Coulter, Brea, Calif.), and diluted to 500 μM using DMSO. Column 1, 22, 23 and 24 were loaded with DMSO for in-plate no-compound controls. The LOPAC compounds were distributed in column 2 through 21. Each plate contains 64 wells of DMSO controls, and 320 wells of compounds from the LOPAC library. Black well, high-quality-glass bottom Greiner 384-well microplates (PN 781892) were selected as the assay plates for their optical clarity, low autofluorescence, and low inter-well cross-talks. Compounds (1 μL) were transferred from the mother plates into assay plates using a Mosquito HV liquid handler (TTP Labtech Ltd, UK). The plates were sealed and stored at −20° C. until use. On the day of screening, the plates were equilibrated to room temperature (25° C.). Stable GFP-SERCA2a (donor only control) or 2CS cells were lifted from a 225 cm^2 flask by incubating with TrypLE (Invitrogen) for 5 min. Cells were collected and pelleted for 5 min at 500 g and resuspended in 10 mL PBS, then analyzed on a Countess cell counter (Invitrogen) and diluted to 1×10^6 cells/mL. 49 μL Cells were plated on top of the compounds by a FlexDrop IV reagent dispenser (PerkinElmer, Waltham, Mass.). Assay plates were spun for 1 min at 200 g and allowed to incubate at RT for 20 min before reading on a fluorescence lifetime plate reader (constructed in collaboration with Fluorescence Innovations, Inc., Minneapolis, Minn.). GFP fluorescence was excited with a 473 nm microchip laser from Concepts Research Corporation (Belgium, Wis.) and emission was filtered with 490 nm long pass and 520/35 nm band pass filters from Semrock (Rochester, N.Y.).
Time-resolved fluorescence waveforms for each well were fitted to single-exponential decays using global analysis software. Each plate contained 64 control wells with only DMSO, and a hit was defined as a compound that changed the 2CS donor lifetime by more than three times the standard deviation (SD) relative to the controls. Fluorescent compounds that caused the intensity of both untransfected HEK cells and 2CS cells to be more than 3SD outside the mean of the 64 controls on a plate were excluded from the hits as likely false positives.

Plasmodium falciparum = settings: cited from earlier work
[1] = system: Ca2+ uptake into microsomes; settings: cited from earlier work
GFP-SERCA2a = test: Donor-only control: GFP lifetime in GFP-SERCA2a cells; type: cell-based, canine
Experimental: as §1, with “Compounds (1 μL) were transferred from the mother plates into assay plates using a Mosquito HV liquid handler (TTP Labtech Ltd, UK). The plates were sealed and stored at −20° C. until use. On the day of screening, the plates were equilibrated to room temperature (25° C.). Stable GFP-SERCA2a (donor only control) or 2CS cells were lifted from a 225 cm^2 flask by incubating with TrypLE (Invitrogen) for 5 min.” left out, “49 μL Cells were plated on top of the compounds by a FlexDrop IV reagent dispenser (PerkinElmer, Waltham, Mass.).” left out
Time-resolved fluorescence waveforms for each well were fitted to single-exponential decays using global analysis software. […]

## Cc1ccc2cccc(NC(=O)c3ccc(OC(C)C)cc3)c2n1 [CDN1163]
SERCA
  mode of SERCA activation: increasing the activity at saturating [Ca^2+]
2-color SERCA2a (2CS); dose-response, live cells
  effect on FRET between GFP and RFP in 2CS: reduce FRET

## CC(=O)C1=C(O)[C@@H]2[C@H]3c4c[nH]c5cccc(c45)C[C@H]3C(C)(C)N2C1=O [CPA, cyclopiazonic acid]
SERCA
  Kd: ~40 nM

## [Cl-].c1ccc2c(c1)[I+]c1ccccc1-2 [DPI, diphenyline iodonium chloride]
SERCA
  inhibition of ATPase activity: < 50%
SERCA; below 10 μM
  functional (ATPase) inhibition: very little functional inhibition
Plasmodium falciparum
  IC50 for inhibition of parasite growth: submicromolar
[1]; 30 µM
  inhibition of Ca2+ uptake into microsomes: 18%
[1]; 100 µM
  inhibition of Ca2+ uptake into microsomes: 32%
2-color SERCA2a (2CS); basal FRET 0.12
  FRET efficiency at maximal effect: 0.10
2-color SERCA2a (2CS)
  LOPAC library screen outcome (2CS GFP lifetime outside 3SD window): reproducible hits
2-color SERCA2a (2CS); maximal effect in dose-response
  maximal reduction of FRET: ~18%

## C/C=C(/C)C(=O)O[C@H]1C(C)=C2[C@H]([C@@H]1OC(=O)CCCCCCC)[C@@](C)(OC(C)=O)C[C@H](OC(=O)CCC)[C@@]1(O)[C@H]2OC(=O)[C@@]1(C)O [TG, thapsigargin]
SERCA; at 7.5 nM
  ATPase activity: nearly ablated
SERCA
  effect on ATPase activity at the highest concentrations tested: completely inhibit ATPase activity
2-color SERCA2a (2CS); at 7.5 nM
  reduction of FRET: ~33%
2-color SERCA2a (2CS)
  LOPAC library screen outcome (2CS GFP lifetime outside 3SD window): reproducible hits

## COc1cc(/C=C(\C#N)C(=O)Nc2nnc(C(F)(F)F)s2)ccc1OCc1ccc(C(F)(F)F)cc1C(F)(F)F [XCT 790]
SERCA
  effect on ATPase activity at the highest concentrations tested: completely inhibit ATPase activity
GFP-SERCA2a
  effect on the lifetime of GFP-SERCA2a alone: no effect
2-color SERCA2a (2CS); dose-response assay, concentration not given
  reduction of FRET: ~42%
2-color SERCA2a (2CS)
  LOPAC library screen outcome (2CS GFP lifetime outside 3SD window): reproducible hits
